Test results taken from patent publication US20240301359A1, “SYSTEM COMPRISING CISPLATIN-RESISTANT XENOGRAFT FOR NASOPHARYNGEAL CARCINOMA AND METHODS THEREOF” (THE UNIVERSITY OF HONG KONG, priority 2023, published 2024).

Columns and labels:
Format in all cases: in vivo
xeno76 NPC PDX = assay: cisplatin treatment of xeno76 PDX-bearing nude mice
Protocol: (§1) Parental xeno76 and xeno76-CR-bearing nude mice were randomized into control and treatment groups (n=4). […] The tumor volume was measured and recorded during the whole treatment period, and the tumor growth curves of xeno76 and xeno76-CR are shown in Error! […] Black arrows represent the treatment day. The xeno76 and xeno76-CR nude mice were randomized respectively on day 0 and received the first treatment. Data presented are mean (n=4) with error bars showing SEM. Statistical significance was done using paired two-tailed t-test, *** P<0.001, ns P>0.05. Furthermore, the tumors of xeno76 and xeno76-CR were also weighed and harvested for further investigation (FIG. 2C). Statistical significance was done using the unpaired two-tailed t-test, ** P<0.01, ns P>0.05.

[1] = test system: xeno76-CR cisplatin-resistant NPC PDX; assay: cisplatin treatment of xeno76-CR PDX-bearing nude mice; conditions: 3 mg/kg cisplatin weekly i.p., at harvest, ns P>0.05
Protocol: as §1

[2] = maximum tolerated dose of cisplatin in nude mice; conditions: weekly i.p.
Description: A protocol for developing cisplatin-resistant PDX model from the NPC PDX models is described. NPC PDX tissues were implanted in nude mice subcutaneously (FIG. 1).

xeno113 metastatic NPC = assay: ixazomib sensitivity of metastatic NPC PDX xeno113; conditions: relatively low dosage
[3] = test system: xeno76-CR cisplatin-resistant NPC PDX; assay: ixazomib treatment of xeno76-CR-bearing nude mice
Protocol: (§2) Xeno76-CR-bearing nude mice were randomized into the control and 4 mg/kg ixazomib treatment group (n=4). Referring to FIG. 5A, black arrows represent the treatment day. Data presented are mean (n=4) with error bars showing SEM. Statistical significance was done using one-way ANOVA, **** P<0.0001.
(§3) The images of size and appearance of the xeno76-CR tumor-bearing mice between control and treatment groups on day 21 are shown in FIG. 5B. […] In FIG. 5C and FIG. 5D, data presented are means (n=4) with error bars showing the SEM. Statistical significance was done using the unpaired two-tailed t-test. Black arrows represent the treatment day.

[4] = body weight and side effects in ixazomib-treated nude mice
Protocol: as §2, §3

xeno76 primary NPC = assay: ixazomib sensitivity of primary NPC PDX xeno76; conditions: naïve to radio- and chemotherapy, relatively low dosage

SMILES: N.N.[Cl][Pt][Cl] [cisplatin]
- tumor growth (tumor volume) vs control (xeno76 NPC PDX; 3 mg/kg cisplatin in saline weekly i.p., n=4, *** P<0.001): significantly inhibited
- tumor weight vs control (xeno76 NPC PDX; 3 mg/kg cisplatin weekly i.p., at harvest): significantly lighter than the xeno76 control group
- tumor weight vs control [1]: no significant differences
- maximum tolerated dose [2]: 5 mg/kg

SMILES: CC(C)C[C@H](NC(=O)CNC(=O)c1cc(Cl)ccc1Cl)B(O)O [ixazomib]
- sensitivity to ixazomib (xeno113 metastatic NPC): sensitive to ixazomib
- sensitivity to ixazomib ([3]; cisplatin-resistant NPC (xeno76-CR), relatively low dosage, summary statement): sensitive to ixazomib
- tumor weight at the endpoint of the experiment ([3]; xeno76-CR, 4 mg/kg ixazomib, n=4 mean, control group 0.52 g, * P<0.05): 0.21 g
- tumor growth (tumor volume) vs control ([3]; xeno76-CR, 4 mg/kg ixazomib, three-week treatment, n=4, **** P<0.0001): effectively inhibited xeno76-CR growth
- observable side effects or weight loss ([4]; 4 mg/kg ixazomib, xeno76-CR bearing nude mice): did not induce any observable side effects or weight loss
- side effects and body weight loss ([4]; all the tested animals, summary statement): no side effects and body weight loss
- sensitivity to ixazomib (xeno76 primary NPC): sensitive to ixazomib
